Measurements taken from patent US20100022582A1, “Tetrahydroisoquinoline Compound and Medicinal Use Thereof” (priority 2005, published 2010).

Columns and labels:
liver ACAT = test: ACAT inhibitory activity (rabbit liver microsome, cholesteryl oleate production); assay type: biochemical, Japanese white rabbits; details: 37° C. for 20 min
Experimental: Male Japanese white rabbits (body weight 2-2.5 kg) were bred on 100 g of a high cholesterol feed (feed added with cholesterol 1%, CLEA Japan, Inc.) daily for 4 weeks and sacrificed by exsanguination under anesthesia. The liver was removed, homogenated and centrifuged at 10,000 rpm and 4° C. for 15 min. The obtained supernatant was further centrifuged at 41,000 rpm and 4° C. for 60 min to give a microsome fraction. To a 0.15 M phosphate buffer were added the microsome suspension as an enzyme specimen, dimethyl sulfoxide (DMSO) or a solution (3 μL) of a test compound in DMSO and [1-14C]-oleoyl-CoA to be a reaction substrate to the total amount of 300 μL. After incubation at 37° C. for 20 min, a mixed solution of chloroform-methanol was added to quench the reaction. Water was added thereto and mixed, and the chloroform layer was separated. The solvent was evaporated to dryness and the residue was redissolved in n-hexane. The resulting solution was subjected to thin layer chromatography using a silica gel plate. The spot of cholesteryl oleate on the silica gel plate was scraped and quantified on a liquid scintillation counter. The ACAT inhibitory activity of the test compound is shown in cholesteryl oleate production inhibitory rate (%) [level of inhibition of cholesteryl oleate production as compared to the control].

[1] = test system: THP-1 cell-derived macrophage; test: Cholesterol ester accumulation-inhibitory activity (THP-1 cell-derived macrophage foam cell formation); assay type: cell-based; details: THP-1 macrophage, acetyl LDL, 3 days
Experimental: THP-1 cells (DAINIPPON PHARMACEUTICAL CO., LTD.) were subcultured in RPMI-1640 medium containing 10% fetal calf serum (FBS), and cells at 6-13th passage after purchase were used. The cells were suspended in FBS-containing RPMI-1640 medium to give a suspension having a concentration of 4×10^5 cells/mL. The cell suspension was seeded on 12-well microplate by 1 mL, and treated with phorbol 12-myristate 13-acetate (PMA, 200 nM) as a differentiation inducer into macrophage. Then, acetyl LDL (400 μg/mL) separately prepared from LDL derived from plasma of a rabbit with genetic hyperlipidemia (KHC rabbit, Japan Laboratory Animals Inc.) was added. A test compound further dissolved in dimethyl sulfoxide (DMSO) and diluted with FBS-containing RPMI-1640 medium and a control solvent were applied. After cultivation in a carbon dioxide incubator for 3 days, the cells were washed with phosphate-buffered saline (pH 7.0), and the lipid was extracted with hexane-isopropanol (3:2). In addition, the cells were lysed with 1N-NaOH, and the protein content was measured. Free cholesterol and cholesterol ester in the lipid extraction sample were measured according to the method of Kunitomo et al. [Japan. J. Pharmacol., 34, 153-158 (1984)]. Cholesterol esters in the control cells and the cells treated with the test compound were compared, and the cholesterol ester accumulation inhibitory rate of the test compound was calculated.

[2] = test system: brain homogenate lipid peroxidation; test: Lipid peroxidation-inhibitory action (brain homogenate, MDA); assay type: biochemical, SD rat; details: rat brain homogenate, 37° C. for 30 min
Experimental: The brain was removed from male SD rat, and a 50 mM phosphate buffer (pH 7.4, 5-fold amount of brain weight) was added. The mixture was homogenized under ice-cooling for 30 sec, and centrifuged at 4° C., 3200 rpm for 10 min. The supernatant was diluted 5-fold with 50 mM phosphate buffer to give a brain homogenate. A test compound (10 μL) was placed in a glass test tube, the brain homogenate (1 mL) was added, and the mixture was incubated at 37° C. for 30 min. 20% Trichloroacetic acid (1 mL) was added to quench the reaction. The reaction mixture was centrifuged at room temperature, 4000 rpm for 10 min. Thiobarbituric acid (0.2 mL) was added to the supernatant (1 mL) and the mixture was heated at 95° C. for 15 min. The absorbance at 532 nm was measured, and lipid peroxide was quantified as malondialdehyde (MDA). The MDA level was compared between the control and the test compound-added sample, and the lipid peroxidation inhibitory rate was calculated.

Structure (SMILES) | liver ACAT inhibition rate (%) (concentration: 10^−6 M) (liver ACAT) | cholesteryl ester accumulation inhibitory rate (%) (concentration: 10^−6 M) [1] | inhibitory rate (%) (10^−4M), lipid peroxidation [2]
CCCCCCCC(=O)N1Cc2ccccc2C[C@@H]1C(=O)Nc1c(C)cc(C)cc1C [Example 26, 2-octanoyl-N-(2,4,6-trimethylphenyl)-1,2,3,4-tetrahydroisoquinoline-(3R)-carboxamide] | 83.8% |  | 
CCCCCC(=O)N1Cc2cc(N)ccc2C[C@H]1C(=O)Nc1cc(C)c(O)c(C)c1C.Cl [Example 80, 7-amino-2-hexanoyl-N-(4-hydroxy-2,3,5-trimethylphenyl)-1,2,3,4-tetrahydroisoquinoline-(3S)-carboxamide hydrochloride] | 93.4% | 94.5% | 
CCC(C)(C)C(=O)N1Cc2cc(N(C)C)ccc2C[C@@H]1C(=O)Nc1cc(C)c(O)c(C)c1C.Cl [Example 75, 7-dimethylamino-2-(2,2-dimethylbutyryl)-N-(4-hydroxy-2,3,5-trimethylphenyl)-1,2,3,4-tetrahydroisoquinoline-(3R)-carboxamide hydrochloride] | 88.8% | 93.4% | 
CCC(C)(C)C(=O)N1Cc2ccccc2C[C@H]1C(=O)Nc1c(C)cc(C)c(NS(C)(=O)=O)c1C [Example 19, 2-(2,2-dimethylbutyryl)-N-(3-methanesulfonylamino-2,4,6-trimethylphenyl)-1,2,3,4-tetrahydroisoquinoline-(3S)-carboxamide] |  | 66.4% | 
CCCCCCCC(=O)N1Cc2ccccc2C[C@H]1C(=O)Nc1c(C)cc(C)cc1C [Example 9, 2-octanoyl-N-(2,4,6-trimethylphenyl)-1,2,3,4-tetrahydroisoquinoline-(3S)-carboxamide] | 88.6% |  | 
CCCCCC(=O)N1Cc2cc(N(C)C)ccc2C[C@@H]1C(=O)Nc1cc(C)c(O)c(C)c1C.Cl [Example 74, 7-dimethylamino-2-hexanoyl-N-(4-hydroxy-2,3,5-trimethylphenyl)-1,2,3,4-tetrahydroisoquinoline-(3R)-carboxamide hydrochloride] |  | 74.7% | 
CCCCCCCC(=O)N1Cc2ccccc2C[C@H]1C(=O)Nc1c(C(C)C)cccc1C(C)C [Example 3, N-(2,6-diisopropylphenyl)-2-octanoyl-1,2,3,4-tetrahydroisoquinoline-(3S)-carboxamide] | 93.3% |  | 
CCCCCCCC(=O)N1Cc2cc(N(C)C)ccc2C[C@H]1C(=O)Nc1c(C)cc(C)cc1C [Example 76, 7-dimethylamino-2-octanoyl-N-(2,4,6-trimethylphenyl)-1,2,3,4-tetrahydroisoquinoline-(3S)-carboxamide] | 76.7% |  | 
CCC(=O)N1Cc2cc(N3CCCC3)ccc2C[C@H]1C(=O)Nc1cc(C)c(O)c(C)c1C.Cl [Example 91, N-(4-hydroxy-2,3,5-trimethylphenyl)-2-propionyl-7-(pyrrolidin-1-yl)-1,2,3,4-tetrahydroisoquinoline-(3S)-carboxamide hydrochloride] |  | 71.1% | 
CCCCCC(=O)N1Cc2cc(O)ccc2C[C@H]1C(=O)Nc1cc(C)c(O)c(C)c1C [Example 116, 2-hexanoyl-7-hydroxy-N-(4-hydroxy-2,3,5-trimethylphenyl)-1,2,3,4-tetrahydroisoquinoline-(3S)-carboxamide] | 97.2% |  | 
CCCCCCCC(=O)N1Cc2ccccc2C[C@H]1C(=O)Nc1cc(C)c(O)c(C)c1C [Example 49, N-(4-hydroxy-2,3,5-trimethylphenyl)-2-octanoyl-1,2,3,4-tetrahydroisoquinoline-(3S)-carboxamide] | 96.8% |  | 
CCCCCC(=O)N1Cc2cc(NS(C)(=O)=O)ccc2C[C@H]1C(=O)Nc1cc(C)c(O)c(C)c1C [Example 95, 2-hexanoyl-N-(4-hydroxy-2,3,5-trimethylphenyl)-7-methanesulfonylamino-1,2,3,4-tetrahydroisoquinoline-(3S)-carboxamide] |  | 80.4% | 
CCCCCC(=O)N1Cc2cc(N(C)C)ccc2C[C@H]1C(=O)Nc1cc(C)c(O)c(C)c1C.Cl [Example 83, 7-dimethylamino-2-hexanoyl-N-(4-hydroxy-2,3,5-trimethylphenyl)-1,2,3,4-tetrahydroisoquinoline-(3S)-carboxamide hydrochloride] | 97.0% | 100.2% | 
CCCCCC(=O)N1Cc2cc(N3CCNCC3)ccc2C[C@H]1C(=O)Nc1cc(C)c(O)c(C)c1C [Example 121, 2-hexanoyl-N-(4-hydroxy-2,3,5-trimethylphenyl)-7-(piperazin-1-yl)-1,2,3,4-tetrahydroisoquinoline-(3S)-carboxamide] |  | 86.8% | 
Cc1cc(NC(=O)[C@@H]2Cc3ccc(N4CCCC4)cc3CN2C(=O)C(C)C)c(C)c(C)c1O.Cl [Example 93, N-(4-hydroxy-2,3,5-trimethylphenyl)-2-isobutyryl-7-(pyrrolidin-1-yl)-1,2,3,4-tetrahydroisoquinoline-(3S)-carboxamide hydrochloride] |  | 83.4% | 
CCCCCC(=O)N1Cc2cc(OCCN3CCCC3)ccc2C[C@H]1C(=O)Nc1cc(C)c(O)c(C)c1C.Cl [Example 118, 2-hexanoyl-N-(4-hydroxy-2,3,5-trimethylphenyl)-7-[2-(pyrrolidin-1-yl)ethoxy]-1,2,3,4-tetrahydroisoquinoline-(3S)-carboxamide hydrochloride] |  | 68.6% | 
CCC(C)(C)C(=O)N1Cc2cc(N)ccc2C[C@H]1C(=O)Nc1cc(C)c(O)c(C)c1C.Cl [Example 104, 7-amino-2-(2,2-dimethylbutyryl)-N-(4-hydroxy-2,3,5-trimethylphenyl)-1,2,3,4-tetrahydroisoquinoline-(3S)-carboxamide hydrochloride] | 80.6% | 77.3% | 
Cc1cc(NC(=O)[C@@H]2Cc3ccc(NS(C)(=O)=O)cc3CN2C(=O)CC(C)(C)C)c(C)c(C)c1O [Example 106, 2-(3,3-dimethylbutyryl)-N-(4-hydroxy-2,3,5-trimethylphenyl)-7-methanesulfonylamino-1,2,3,4-tetrahydroisoquinoline-(3S)-carboxamide] | 89.6% | 76.9% | 
Cc1cc(NC(=O)[C@@H]2Cc3ccccc3CN2C(=O)C(C)C)c(C)c(C)c1O [Example 50, N-(4-hydroxy-2,3,5-trimethylphenyl)-2-isobutyryl-1,2,3,4-tetrahydroisoquinoline-(3S)-carboxamide] |  |  | 85.7%
CCCCCC(=O)N1Cc2cc(OCCCO)ccc2C[C@H]1C(=O)Nc1cc(C)c(O)c(C)c1C [Example 119, 2-hexanoyl-7-(3-hydroxypropoxy)-N-(4-hydroxy-2,3,5-trimethylphenyl)-1,2,3,4-tetrahydroisoquinoline-(3S)-carboxamide] |  | 84.5% | 
CCCC(=O)N1Cc2cc(N(C)C)ccc2C[C@H]1C(=O)Nc1cc(C)c(O)c(C)c1C.Cl [Example 71, 2-butyryl-7-dimethylamino-N-(4-hydroxy-2,3,5-trimethylphenyl)-1,2,3,4-tetrahydroisoquinoline-(3S)-carboxamide hydrochloride] |  | 79.2% | 
CCCCCC(=O)N1Cc2cc(O)ccc2C[C@H]1C(=O)Nc1c(C(C)C)cc(N)cc1C(C)C.Cl [Example 114, N-(4-amino-2,6-diisopropylphenyl)-2-hexanoyl-7-hydroxy-1,2,3,4-tetrahydroisoquinoline-(3S)-carboxamide hydrochloride] | 87.5% |  | 
